What was measured:
CysAp = experiment: Urinary CysAp activity in rats, fluorometric analysis with cystinyl-β-naphthylamide; format: in vivo, Wistar rats
Description: (§1) All treatments were maintained during 6 weeks. […] The GluAp, […] […] A blank was performed in duplicate for each sample.

AlaAp = experiment: Urinary AlaAp activity in rats, fluorometric analysis with alanyl-β-naphthylamide; format: in vivo, Wistar rats; details: for AlaAp urinary activity change: rats, 6 weeks treatment (8% NaCl in diet; methimazole 300 mg/l drinking water), versus control group
Description: as §1

GluAp = experiment: Urinary GluAp activity in rats, fluorometric analysis with glutamyl-β-naphthylamide; details: for GluAp urinary activity change: rats, 6 weeks treatment (8% NaCl in diet; methimazole 300 mg/l drinking water; T4 200 μg/kg/day s.c.), versus control group
Description: (§2) On the one hand, 42 male Wistar rats of 250 g in weight from the animal house of the University of Valladolid were distributed in 6 groups (n=7) with the following treatments: Control, Salt (8% NaCl in the diet), Hypothyroid (methimazole, 300 mg/l in drinking water), Hypothyroid+Salt, Hyperthyroid (daily s.c. injection of thyroxine (T4) 200 μg.kg^−1.day^−1), and Hyperthyroid+Salt.
(§3) At the end of the experiment, and after a 2-day period of adaptation to the metabolic cages, each animal was introduced in a metabolic cage during 24 hours. The dieresis was determined, and the urine was centrifuged for 10 min at 1,000 g, aliquoted and frozen at −80° C. until its use.
The GluAp, AlaAp, AspAp and CysAp activities were determined in duplicate by a fluorometric analysis using glutamyl-, alanyl-, aspartyl- and cystinyl-β-naphthylamide as substrates, respectively.
The substrates had been previously dissolved in 1 ml of DMSO and stored at -20° C.
The quantity of β-naphthylamine released as a result of the aminopeptidase activities was measured fluorometrically at an emission wavelength of 412 nm with excitation at 345 nm, taking a measurement of the fluorescence after 60 minutes, after stopping the reaction with 90 μl of 0.1 M acetate buffer.
A blank was performed in duplicate for each sample. […] The fluorescence difference between both measurements was quantified using a standard curve of β-naphthylamine dissolved in water at the concentrations of 12.5, 25, 50, 100 and 200 nmol/ml 90 μl of the incubation solution corresponding to each enzyme without the substrate were added to 20 μl of this solution, they were incubated during 60 minutes at 37° C., and 90 μl of 0.1 M acetate buffer were added. It was verified that the presence of the substrate in the incubation solutions in no way modified the fluorescence of the standard. All measurements were made in duplicate, and the linearity of the fluorescence obtained in the curve range was verified (0-200 nmol/ml).
Both for the determinations of the samples and for the blanks, reaction blanks were performed containing 20 μl of distilled water, 90 μl of incubation solution with or without substrate, respectively, and 90 μl of sodium acetate.
The specific activity of each aminopeptidase was expressed as nanomoles of hydrolyzed substrate per minute and per mg of creatinine. The linearity of the fluorescence obtained was verified with respect to hydrolysis time and creatinine content in a same sample.

AspAp = experiment: Urinary AspAp activity in rats, fluorometric analysis with aspartyl-β-naphthylamide; format: in vivo, Wistar rats
Description: as §1

[1] = Proteinuria in rats (Bio-Rad DC Protein Assay kit, Lowry's method)
Description: as §2, §3
Proteinuria was determined using a commercial kit from Bio-Rad (DC Protein Assay kit) based on Lowry's method.

[2] = rats, 8% NaCl in diet, 6 weeks
Description: as §2

[3] = rats, 6 weeks treatment (methimazole 300 mg/l drinking water), versus control group
[4] = methimazole 300 mg/l given to rats treated with 8% salt (Hypothyroid+salt), 6 weeks, in comparison with rats treated with salt
[5] = rats, 6 weeks treatment (8% NaCl in diet; methimazole 300 mg/l drinking water; T4 200 μg/kg/day s.c.), versus control group
[6] = 8% salt given simultaneously to hyperthyroid (T4) rats, 6 weeks, over the value of the hyperthyroid rats

Q: With `Cn1cc[nH]c1=S` [methimazole, reference compound] as the compound, how does the “CysAp urinary activity change” value (CysAp; [3]) read?
A: no modification

Q: What about the AlaAp activity change (AlaAp; [4]) of the same compound?
A: decrease

Q: And the “AlaAp urinary activity change” value (AlaAp)?
A: significantly decreased

Q: What about the GluAp activity change (GluAp; [4]) of the same compound?
A: decrease

Q: What about the “GluAp urinary activity change” value (GluAp) of the same compound?
A: no modification

Q: And the “AspAp urinary activity change” value (AspAp; [3])?
A: no modification

Q: And the proteinuria change [1, 5]?
A: no modification

Q: With `[Cl-].[Na+]` [Salt, NaCl] as the compound, how does the “rise in CysAp activity” value (CysAp; [6]) read?
A: around fivefold

Q: What about the “rise in AlaAp activity” value (AlaAp; [6]) of the same compound?
A: more than tenfold

Q: And the “AlaAp urinary activity change” value (AlaAp)?
A: significant increase

Q: And the “rise in GluAp activity” value (GluAp; [6])?
A: more than tenfold

Q: What about the “GluAp urinary activity change” value (GluAp) of the same compound?
A: significant increase

Q: And the “rise in AspAp activity” value (AspAp; [6])?
A: around fivefold

Q: And the proteinuria change ([1]; 8% salt given simultaneously to hyperthyroid (T4) rats, 6 weeks)?
A: great increase

Q: And the proteinuria change [1, 5]?
A: not accompanied with proteinuria

Q: And the plasma creatinine change [2]?
A: not accompanied
